Measurements reported in US10188743B2, “Cytisine-linked isoflavonoid antineoplastic agents for the treatment of cancer” (UNIVERSITY OF KENTUCKY RESEARCH FOUNDATION, priority 2016, dated 2019).

Key:
AMPK = AMPK activation (levels of phosphorylated AMPK, Western blotting); type: cell-based
Method: (§1) Biochemistry. Western blotting: Cells were lysed in the appropriate volume of lysis buffer (50 mM HEPES, 100 mM NaCl, 2 mM EDTA, 1% glycerol, 50 mM NaF, 1 mM Na3VO4, 1% Triton X-100, with protease inhibitors). The following antibodies were used: HSD17B4 (GeneTex, GTX103864), AMPK (Cell Signaling, 2532), pAMPK (Cell Signaling, 2535), ACC (Cell Signaling, 3676), pACC (Cell Signaling, 11818), p^70 (Cell Signaling, 2708), p-p^70 (Cell Signaling, 9914), S6 (Cell Signaling, 2217), pS6 (Cell Signaling, 4858), MCCA (GeneTex, GTX110062), tubulin (Hybridoma Bank, E7), Actin (Sigma, A1978), His-tag (BD Pharmingen, 552564).

[1] = system: HSD17B4 (full-length and truncated constructs); assay: Streptavidin bead-based pull-down with purified full-length and truncated HSD17B4 constructs; type: binding; conditions: purified protein from E. coli
Source text: (§2) We next sought to delineate if these cystisine-linked isoflavonoid inhibitors were selective for one of the two enzymatic activities, either the α,β-dehydrogenase or hydratase activity, found in HSD17B4. We generated a panel of truncated HSD17B4 constructs and purified these truncated proteins as well as the full-length protein from E. coli (FIG. 3A). We evaluated the binding of 15d to these constructs using the streptavidin bead-based pull-down assay.
(§3) Streptavidin-agarose pulldown: Biotinylated compound 15d (FIG. 2A) was incubated with cell lysates and streptavidin beads. The binding proteins were pulled down and analyzed by 4-12% SDS-PAGE as described previously. The protein bands were identified by NanoLC-ESI-MS/MS at ProtTech Inc. For binding and enzymatic assays, His-tagged HSD17B4 constructs were clone and truncated by PCR using pET28. The full-length and truncated proteins were purified from bacteria BL21.

[2] = molecular target: T1, HSD17B4 (full-length and truncated constructs) (Homo sapiens, UniProt P51659); assay: as above; type: binding; conditions: purified protein from E. coli
T1 construct: His-tag; made in house; host or cells: E. coli BL21 (pET28)
T1 sequence (P51659 1-736): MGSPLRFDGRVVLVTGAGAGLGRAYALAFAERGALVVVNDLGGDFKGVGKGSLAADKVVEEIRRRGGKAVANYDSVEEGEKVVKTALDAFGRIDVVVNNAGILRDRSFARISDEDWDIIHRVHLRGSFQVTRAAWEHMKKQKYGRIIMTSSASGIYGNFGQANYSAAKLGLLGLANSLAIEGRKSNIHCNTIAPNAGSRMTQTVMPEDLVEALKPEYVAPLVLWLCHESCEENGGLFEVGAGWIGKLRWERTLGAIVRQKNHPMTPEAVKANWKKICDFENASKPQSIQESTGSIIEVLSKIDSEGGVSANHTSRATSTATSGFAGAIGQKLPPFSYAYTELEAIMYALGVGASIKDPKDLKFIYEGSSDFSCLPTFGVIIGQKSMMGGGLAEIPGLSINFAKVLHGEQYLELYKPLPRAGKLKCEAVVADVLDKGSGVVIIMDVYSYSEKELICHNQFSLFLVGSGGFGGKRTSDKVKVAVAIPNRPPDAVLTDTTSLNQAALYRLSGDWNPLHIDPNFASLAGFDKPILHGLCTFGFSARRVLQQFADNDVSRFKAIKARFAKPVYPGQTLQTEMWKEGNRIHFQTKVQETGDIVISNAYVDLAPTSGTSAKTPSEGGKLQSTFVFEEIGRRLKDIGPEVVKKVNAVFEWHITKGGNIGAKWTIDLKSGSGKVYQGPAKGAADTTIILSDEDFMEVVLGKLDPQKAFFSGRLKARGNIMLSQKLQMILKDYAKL
Source text: as §2, §3

HSD17B4 = assay: Streptavidin-bead pull-down from LS174T cell lysates, validated by Western blot; type: binding
Method: (§4) Identification of the direct target of these AMPK activators involved incubation of 15d with LS174T cell lysates and a subsequent pull-down assay using biotinylated 15d bound to streptavidin beads. The binding proteins were eluted with 2.5 mM biotin and analyzed by 4-12% SDS-PAGE gel using colloidal blue staining (FIG. 2D). We identified two specific bands (F1 and F2) in the 15d-containing sample compared with the control samples containing only beads or only beads and biotin. These two bands were excised from gels and analyzed by NanoLC-ESI-MS/MS. The band F1 (FIG. 2D) contained two proteins: [1] peroxisomal hydroxysteroid 17-dehydrogenase-4 (HSD17B4); and [2] mitochondrial methylcrotonoyl-CoA carboxylase subunit alpha (MCCA). The band F2 also matched HSD17B4.
(§5) The multifunctional nature of HSD17B4 included two of the four enzymatic activities required for the beta-oxidation of very long-chain fatty acids (VLCFA) in the peroxisome. […] The HSD17B4 antibody (GeneTex) recognized the full-length and the C-terminal fragment (FIG. 2E).
(§6) Streptavidin-agarose pulldown: Biotinylated compound 15d (FIG. 2A) was incubated with cell lysates and streptavidin beads. The binding proteins were pulled down and analyzed by 4-12% SDS-PAGE as described previously. […]

MCCA = molecular target: T2, MCCA (Homo sapiens, UniProt Q96RQ3); assay: as above; type: binding
T2 construct: endogenous in cells; host or cells: LS174T colon cancer cells
T2 sequence (Q96RQ3 42-725): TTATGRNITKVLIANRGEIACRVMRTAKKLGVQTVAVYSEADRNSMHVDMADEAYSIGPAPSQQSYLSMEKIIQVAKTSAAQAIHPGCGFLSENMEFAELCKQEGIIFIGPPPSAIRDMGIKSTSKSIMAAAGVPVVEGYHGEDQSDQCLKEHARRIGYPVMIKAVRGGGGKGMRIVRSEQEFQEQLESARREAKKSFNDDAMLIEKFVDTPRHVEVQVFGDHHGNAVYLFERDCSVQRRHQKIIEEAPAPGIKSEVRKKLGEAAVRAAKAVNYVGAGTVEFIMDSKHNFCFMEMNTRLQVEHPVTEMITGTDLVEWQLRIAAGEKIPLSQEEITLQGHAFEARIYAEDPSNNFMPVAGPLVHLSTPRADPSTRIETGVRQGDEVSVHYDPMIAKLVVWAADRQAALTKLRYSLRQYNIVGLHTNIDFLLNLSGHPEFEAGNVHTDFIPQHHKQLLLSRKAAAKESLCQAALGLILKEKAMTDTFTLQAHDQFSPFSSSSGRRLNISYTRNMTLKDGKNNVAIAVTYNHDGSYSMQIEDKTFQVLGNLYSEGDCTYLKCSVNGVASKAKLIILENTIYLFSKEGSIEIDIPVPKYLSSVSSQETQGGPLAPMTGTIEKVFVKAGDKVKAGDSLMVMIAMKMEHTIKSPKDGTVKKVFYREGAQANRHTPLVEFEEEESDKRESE
Method: as §4, §5, §6

[3] = system: acetyl CoA carboxylase (ACC); assay: ACC phosphorylation / activation downstream of AMPK (Western blotting); type: cell-based
Method: as §1

Structure (SMILES) | AMPK-fold Activation (10 μM) (AMPK) [fold] | melting point [°C] | AMPK activation (in words) (AMPK) | further results
O=c1c(-c2ccccc2)coc2cc(OCCN3C[C@@H]4C[C@H](C3)c3cccc(=O)n3C4)ccc12 [Compound 10a, (1R,5S)-3-(2-((4-Oxo-3-phenyl-4H-chromen-7-yl)oxy)ethyl)-3,4,5,6-tetrahydro-1H-1,5-methanopyrido[1,2-a][1,5]diazocin-8(2H)-one] | 3.6 | 197 to 198 |  | 
Cc1oc2cc(OCCCCC(CN3C[C@@H]4C[C@@H](C3)c3cccc(=O)n3C4)=NNC(=O)CCOCCOCCOCCOCCNC(=O)CCCC[C@@H]3SCC4NC(=O)NC43)ccc2c(=O)c1-c1ccc(Cl)cc1 (stereo partly drawn) [Compound 15d, N-(22-((3-(4-chlorophenyl)-2-methyl-4-oxo-4H-chromen-7-yl)oxy)-15-oxo-18-(((1S,5S)-8-oxo-1,5,6,8-tetrahydro-2H-1,5-methanopyrido[1,2-a][,5]diazocin-3(4H)-yl)methyl)-3,6,9,12-tetraoxa-16,17-diazadocos-17-en-1-yl)-5-((4S)-2-oxohexahydro-1H-thieno[3,4-d]imidazol-4-yl)pentanamide] |  |  |  | binding to N-terminus-truncated fragment C919 [1]: strongly bound; interaction with C-terminus-truncated fragment N634 [1]: not the C-terminus-truncated fragments N318 and N634, interacted; interaction with full-length HSD17B4 [2]: interacted; binding of HSD17B4 in pull-down (HSD17B4): specific binding protein; binding of MCCA in pull-down (MCCA): non-specific binding protein
COc1ccc(-c2coc3cc(OCCN4C[C@@H]5C[C@H](C4)c4cccc(=O)n4C5)ccc3c2=O)cc1 [Compound 10b, (1R,5S)-3-(2-((3-(4-Methoxyphenyl)-4-oxo-4H-chromen-7-yl)oxy)ethyl)-3,4,5,6-tetrahydro-1H-1,5-methanopyrido[1,2-a][1,5]diazocin-8(2H)-one] | 9.9 |  |  | 
Cc1oc2cc(O)ccc2c(=O)c1-c1ccc(Cl)cc1 [Compound 3d, 3-(4-Chlorophenyl)-7-hydroxy-2-methyl-4H-chromen-4-one] |  | 277 to 278 | most active AMPK activators | activation of acetyl CoA carboxylase [3]: modest activation
O=C(CCCCOc1ccccc1)CN1C[C@@H]2C[C@@H](C1)c1cccc(=O)n1C2 [Compound 17, (1S,5S)-3-(2-oxo-6-phenoxyhexyl)-3,4,5,6-tetrahydro-1H-1,5-methanopyrido[1,2-a][1,5]diazocin-8(2H)-one] |  |  | inactive | 
O=c1cccc2n1C[C@H]1C[C@H]2CN(CC(O)CCCCOc2ccccc2)C1 (stereo partly drawn) [Compound 16, (1S,5S)-3-(2-Hydroxy-6-phenoxyhexyl)-3,4,5,6-tetrabydro-1H-1,5-methanopyrido[1,2-a][1,5]diazocin-8(2H)-one] |  |  | inactive | 
O=c1c(-c2ccc(Cl)cc2)coc2cc(O)ccc12 [Compound 3c, 3-(4-Chlorophenyl)-7-hydroxy-4H-chromen-4-one] |  |  | most active AMPK activators | activation of acetyl CoA carboxylase [3]: modest activation
Cc1oc2cc(OCCN3C[C@@H]4C[C@H](C3)c3cccc(=O)n3C4)ccc2c(=O)c1-c1ccc(Cl)cc1 [Compound 10d, (1R,5S)-3-(2-((3-(4-Chlorophenyl)-2-methyl-4-oxo-4H-chromen-7-yl)oxy)ethyl)-3,4,5,6-tetrahydro-1H-1,5-methanopyrido[1,2-a][1,5]diazocin-8(2H)-one] | 2.2 | 186 to 187 |  | 
